The results in this text go back to ChEMBL document CHEMBL3627688, “Structure-based hybridization, synthesis and biological evaluation of novel tetracyclic heterocyclic azathioxanthone analogues as potential antitumor agents” (Eur J Med Chem, 2015).

What is called IC50 is the concentration that inhibits the measured activity by half.

One experiment has as its system PC-3. As to the kind of experiment: Antiproliferative activity against human PC3 cells assessed as cell viability incubated for 72 hrs by MTT assay. The format is functional, cell-based. The conditions noted are these: PC-3, 72 h. (In general: Formazan colour is commonly taken as a measure of viable cells.)
For the next experiment, the system named is DU-145. As to the kind of experiment: Antiproliferative activity against human DU145 cells assessed as cell viability incubated for 72 hrs by MTT assay. The class given is functional, cell-based. The conditions noted are these: DU-145, 72 h.
In experiment [1] the target is DNA topoisomerase 1 (Homo sapiens) (UniProt P11387). As to the kind of experiment: Inhibition of human recombinant topoisomerase 1 assessed as blocking of supercoiled pHOT DNA relaxation at 50 uM incubated for 25 mins at 37 degC by ethidium bromide staining based agarose gel electrophoresis.
Experiment [2] deals with DNA topoisomerase 2-alpha (Homo sapiens) (UniProt P11388). Briefly: Inhibition of human recombinant topoisomerase 2 alpha assessed as blocking of supercoiled pHOT DNA relaxation at 50 uM incubated for 45 mins at 37 degC by ethidium bromide staining based agarose gel electrophoresis.

Activity calls are given as the source filed them. The calls are words filed in the database; no cut-off is given here. Where only a bound is given, the exact number is not on record here.

DNA topoisomerase 1 (Homo sapiens), sequence (P11387 whole entry): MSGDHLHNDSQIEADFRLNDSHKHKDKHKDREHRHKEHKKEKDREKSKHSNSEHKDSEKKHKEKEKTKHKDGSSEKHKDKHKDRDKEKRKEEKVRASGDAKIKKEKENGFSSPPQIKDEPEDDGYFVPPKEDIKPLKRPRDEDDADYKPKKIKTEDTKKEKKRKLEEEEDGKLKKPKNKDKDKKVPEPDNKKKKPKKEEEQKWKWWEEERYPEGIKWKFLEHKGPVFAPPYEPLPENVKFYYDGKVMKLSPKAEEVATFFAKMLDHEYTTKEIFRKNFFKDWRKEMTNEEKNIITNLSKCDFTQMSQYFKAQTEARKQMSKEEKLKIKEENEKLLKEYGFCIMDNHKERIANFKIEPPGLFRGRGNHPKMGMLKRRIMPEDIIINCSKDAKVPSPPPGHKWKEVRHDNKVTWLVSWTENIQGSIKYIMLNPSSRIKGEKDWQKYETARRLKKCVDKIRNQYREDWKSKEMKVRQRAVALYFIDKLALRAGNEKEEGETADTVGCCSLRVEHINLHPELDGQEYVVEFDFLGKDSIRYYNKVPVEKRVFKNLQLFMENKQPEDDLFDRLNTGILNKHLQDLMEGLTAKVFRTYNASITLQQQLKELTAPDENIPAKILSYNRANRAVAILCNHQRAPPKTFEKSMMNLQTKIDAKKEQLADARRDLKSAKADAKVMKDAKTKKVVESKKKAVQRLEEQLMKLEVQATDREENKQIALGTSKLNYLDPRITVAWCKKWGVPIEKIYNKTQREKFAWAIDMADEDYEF
DNA topoisomerase 2-alpha (Homo sapiens), sequence (P11388 whole entry): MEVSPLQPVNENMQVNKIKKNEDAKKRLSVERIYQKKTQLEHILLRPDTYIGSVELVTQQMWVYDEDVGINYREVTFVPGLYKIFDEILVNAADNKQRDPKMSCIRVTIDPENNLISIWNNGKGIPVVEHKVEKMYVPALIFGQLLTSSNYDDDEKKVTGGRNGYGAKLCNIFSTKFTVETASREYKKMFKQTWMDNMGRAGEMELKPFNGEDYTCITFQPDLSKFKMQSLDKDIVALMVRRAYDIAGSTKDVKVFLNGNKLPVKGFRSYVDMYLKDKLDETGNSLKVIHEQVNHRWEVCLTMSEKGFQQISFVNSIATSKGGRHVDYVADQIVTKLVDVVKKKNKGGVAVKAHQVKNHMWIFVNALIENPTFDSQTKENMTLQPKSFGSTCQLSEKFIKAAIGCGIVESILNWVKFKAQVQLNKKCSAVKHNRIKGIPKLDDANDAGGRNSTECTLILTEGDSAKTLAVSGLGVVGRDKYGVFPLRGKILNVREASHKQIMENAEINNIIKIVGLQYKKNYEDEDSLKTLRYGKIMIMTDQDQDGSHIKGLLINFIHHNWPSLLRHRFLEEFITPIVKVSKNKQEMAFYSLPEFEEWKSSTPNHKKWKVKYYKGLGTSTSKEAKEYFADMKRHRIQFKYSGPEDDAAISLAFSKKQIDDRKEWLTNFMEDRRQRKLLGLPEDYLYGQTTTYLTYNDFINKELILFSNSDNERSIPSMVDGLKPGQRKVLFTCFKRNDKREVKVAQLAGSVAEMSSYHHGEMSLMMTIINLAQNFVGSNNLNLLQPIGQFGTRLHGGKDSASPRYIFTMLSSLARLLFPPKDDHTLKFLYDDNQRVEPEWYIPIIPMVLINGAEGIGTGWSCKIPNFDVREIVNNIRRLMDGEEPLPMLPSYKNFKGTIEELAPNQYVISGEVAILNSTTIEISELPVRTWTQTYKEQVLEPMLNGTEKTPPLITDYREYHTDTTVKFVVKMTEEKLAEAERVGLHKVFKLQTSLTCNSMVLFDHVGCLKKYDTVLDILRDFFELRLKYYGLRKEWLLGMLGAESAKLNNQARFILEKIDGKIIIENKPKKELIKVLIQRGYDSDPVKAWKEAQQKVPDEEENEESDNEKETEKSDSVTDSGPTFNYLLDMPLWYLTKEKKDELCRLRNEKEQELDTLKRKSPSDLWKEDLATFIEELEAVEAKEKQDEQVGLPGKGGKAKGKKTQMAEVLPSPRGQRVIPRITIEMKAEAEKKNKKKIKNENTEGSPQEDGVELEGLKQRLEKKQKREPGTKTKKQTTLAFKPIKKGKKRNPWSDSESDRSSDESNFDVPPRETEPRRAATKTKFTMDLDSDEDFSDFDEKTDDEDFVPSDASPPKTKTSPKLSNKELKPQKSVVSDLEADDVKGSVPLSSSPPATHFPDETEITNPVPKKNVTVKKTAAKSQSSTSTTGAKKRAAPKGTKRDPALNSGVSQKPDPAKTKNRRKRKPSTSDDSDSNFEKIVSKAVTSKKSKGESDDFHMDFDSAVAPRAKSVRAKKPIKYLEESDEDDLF

With `O=c1c2cc(Cl)ccc2sc2c(N3CCCCC3)nc3ccccc3c12`, the IC50 with PC-3 is above 15 µM; with DU-145, 13.4 µM.

On to `O=c1c2cc(Cl)ccc2sc2c(N3CCC(N4CCCCC4)CC3)nc3ccccc3c12`, for which the IC50 was 14.2 µM in the experiment on PC-3 and 10.2 µM in the experiment on DU-145.

`O=c1c2cc(Cl)ccc2sc2c(N3CCC(CCCC4CCNCC4)CC3)nc3ccccc3c12`: the IC50 worked out at 6.36 µM in the experiment on PC-3 and 9.02 µM in the experiment on DU-145. For the same compound, the inhibition entry in experiment [1] was “Active”.

For the compound `O=c1c2cc(Cl)ccc2sc2c(N3CCC(Cc4ccccc4)CC3)nc3ccccc3c12`, the IC50 with PC-3 and in the experiment on DU-145 was above 15 µM throughout.

Regarding `O=c1c2cc(Cl)ccc2sc2c(N3CCSCC3)nc3ccccc3c12`, the IC50 with PC-3 and in the experiment with DU-145 was above 15 µM throughout.

In the case of `COc1cccc2c1C(=O)c1c(O)c3c(c(O)c1C2=O)C[C@@](O)(C(=O)CO)C[C@@H]3O[C@H]1C[C@H](N)[C@H](O)[C@H](C)O1` [DOXORUBICIN], the IC50 in the experiment on DU-145 amounted to 0.12 µM.

On to `O=c1c2cc(Cl)ccc2sc2c(N3CCC(O)CC3)nc3ccccc3c12`, for which the IC50 came to 9.55 µM in the experiment with PC-3 and 11.1 µM with DU-145. The inhibition result in experiment [1] was “Active”.

For the compound `O=c1c2cc(Cl)ccc2sc2c(N3CCCC3)nc3ccccc3c12`, the IC50 in the experiment on PC-3 and in the experiment with DU-145 was above 15 µM each time.

Take `COc1cc([C@@H]2c3cc4c(cc3[C@@H](O[C@@H]3O[C@@H]5CO[C@@H](C)O[C@H]5[C@H](O)[C@H]3O)[C@H]3COC(=O)[C@H]23)OCO4)cc(OC)c1O` [ETOPOSIDE]: the results for the IC50 in the experiment on PC-3 and in the experiment with DU-145 were 4.33 µM and 0.4 µM, respectively. Besides, the inhibition entry in experiment [2] is “Active”.

Take `CC[C@@]1(O)C(=O)OCc2c1cc1n(c2=O)Cc2cc3ccccc3nc2-1` [CAMPTOTHECIN]: the IC50 in the experiment with PC-3 and in the experiment on DU-145 was 0.1 µM in each case.
